Measurements reported in US20250288547A1, “TREATMENT OF DISEASES CAUSED BY RNA VIRUSES” (Amerimmune LLC, priority 2021, published 2025).

Experiments:
[1] = molecular target: T1, caspase-1 (Homo sapiens, UniProt P29466); assay: Ex vivo active caspase-1 in CD4 T cells, whole blood incubated with caspase inhibitors with or without nigericin (Example 9); type: cell-based; conditions: inhibitor incubation, 24 hrs later with or without nigericin; for T-helper cell caspase-1 expression: COVID-19 whole blood samples
T1 sequence (P29466 120-297 limits assumed): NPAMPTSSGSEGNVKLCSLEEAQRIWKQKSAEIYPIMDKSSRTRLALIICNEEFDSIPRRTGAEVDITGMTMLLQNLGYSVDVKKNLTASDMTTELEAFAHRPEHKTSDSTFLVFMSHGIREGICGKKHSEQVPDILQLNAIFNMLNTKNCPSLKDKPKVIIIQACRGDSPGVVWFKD
T1 sequence (P29466 317-404 limits assumed): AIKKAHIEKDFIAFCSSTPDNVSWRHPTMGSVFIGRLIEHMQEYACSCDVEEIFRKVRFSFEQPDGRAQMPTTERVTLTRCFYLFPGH

[2] = tested on: red blood cell (RBC) layer in the PBMC layer (RBC aggregation); assay: “Red ring” (contaminating RBC layer in PBMC layer) in COVID-19 patient samples; type: cell-based, human; conditions: PBMCs from COVID-19 patient samples, 1 micromolar, room temperature, 17 hours
Description: One of the observations made during the preparation of peripheral blood mononuclear cells (PBMC) for some of the experiments described herein was the presence of a contaminating red blood cell (RBC) layer in the PBMC layer, which was referred to as a “red ring”. This “red ring” was present in all COVID-19 patient samples, with no difference between critically ill patients and those who were only on supportive care outside the ICU setting (see FIG. 12A).
When PBMCs isolated from COVID-19 patient samples were incubated with Emricasan (1 micromolar) at room temperature for 17 hours, a decrease in the “red ring” was observed.

[3] = molecular target: Caspase 1 (Homo sapiens, UniProt P29466); assay: Active caspase-1 FLICA flow cytometry, whole blood from COVID-19 (+) patients incubated with Emricasan (Example 7); type: cell-based; parameters: dose or concentration left out as unconfirmed; conditions: 17 hours (overnight) room temperature on a rocker, 3 samples from COVID-19 patients
Protocol: Whole blood from COVID-19 (+) patients was incubated either (A) without addition of Emricasan (Untreated) or (B) with Emricasan (Sigma Aldrich, MO, SML2227-5 MG), 1 μM final concentration for 3.5 hours at room temperature (Treated). Following incubation with or without Emricasan, PBMCs were purified using an Accuspin System—Histopaque 1077 (Sigma Aldrich, MO, A6929) as per the manufacturer's instructions. Purified Treated and Untreated PBMCs were incubated with nigericin (Immunochemistry Technologies, MN) as per the manufacturer's instructions for 2 hours. […] PMBCs were washed with cell wash buffer (Immunochemistry Technologies, MN) to remove unbound FLICA probes. Washed PBMCs were FACS-sorted using CD45 PE-CY7 [HI30], CD3 AF700 [UCHT1], CD4 PE [RPA-T4], CD45RO PerCP-EF710 [UCHL1], and Viability Dye 780 (Thermo Fisher Scientific, Carlsbad, CA) to identify viable CD3-cells as well as CD3+ cells and CD3+CD4+ T cells. Lymphocytes were identified using a standard gating schematic that incorporated gating of lymphocytes on a FSC/SSC plot and singlets on a FSC-A/FSC-H plot. Lymphocytes were further identified as CD45+ on a CD45/SSC plot and subsequent CD3−, CD3+, and CD3+CD4+ cells were identified on a CD45+CD3/CD4 plot.
In another experiment, whole blood was incubated with […] Emricasan for 17 hours (overnight between 5 PM to 10 AM) at room temperature on a rocker. […]

[4] = molecular target: T2, caspase-3 (Homo sapiens, UniProt P42574); assay: Caspase-3 in red blood cells incubated with patient plasma (Example 9); type: cell-based
T2 construct: endogenous in cells; host or cells: human red blood cells incubated with patient plasma
T2 sequence (P42574 29-175 limits assumed): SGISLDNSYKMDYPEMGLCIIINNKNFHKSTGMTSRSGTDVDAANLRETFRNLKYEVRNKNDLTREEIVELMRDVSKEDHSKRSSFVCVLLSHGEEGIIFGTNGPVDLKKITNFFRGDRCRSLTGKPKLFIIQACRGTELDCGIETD
T2 sequence (P42574 176-277 limits assumed): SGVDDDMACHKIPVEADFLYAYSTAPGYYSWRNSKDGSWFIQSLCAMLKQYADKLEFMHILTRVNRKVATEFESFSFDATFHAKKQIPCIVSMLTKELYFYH

[5] = tested on: mild COVID-19; assay: Phase 1 double-blinded placebo-controlled safety and tolerability study in symptomatic outpatient mild-COVID-19 patients (Example 10); type: in vivo, human
Protocol: A double-blinded, placebo-controlled randomized safety and tolerability study (1:1 active: placebo) was performed in a number symptomatic outpatient mild-COVID-19 patients receiving standard of care therapy. A total of 13 patients were enrolled at a single site in New York City. Treatment involved administering Emricasan (EMR) (or placebo) at 25 mg BID dosing for 14 days, with follow-up for an additional month. […] This study was thus designed to evaluate safety and tolerability, with the primary endpoint being the difference, if any, between treatment-related adverse events (AEs), including severe adverse events (SAEs), if any, in the active (EMR) and placebo groups through day 14. The pharmacokinetics (PK) of EMR has been extensively studied in earlier clinical trials. Accordingly, patients in this Phase 1 study were sampled at the end of the study to confirm that Emricasan pharmacokinetics was not altered in COVID-19 patients. Secondary endpoints included various clinical and laboratory measures and patient reported outcomes (PROs) using a COVID-19-related assessment tool.

[6] = molecular target: T3, main protease of SARS-COV-2 (Severe acute respiratory syndrome coronavirus 2, UniProt P0DTD1); conditions: subsequent reports; cited from earlier work
T3 construct: the main protease of SARS-COV-2

[7] = tested on: ACE-2 receptor; conditions: subsequent reports; cited from earlier work
[8] = in vivo; cited from earlier work

| SMILES | T-helper cell caspase-1 expression [1] | “red ring” (contaminating RBC layer in PBMC layer) [2] | samples showing inhibition of nigericin-induced Caspase-1 activity [3] | T-helper cell caspase-1 upregulation ([1]; healthy subjects' whole blood) | RBC caspase-3 up-regulation ([4]; healthy subjects' RBCs, COVID-19 plasma incubated samples) | RBC baseline caspase-3 expression levels ([4]; influenza-plasma incubated samples) | serious adverse events ([5]; 25 mg BID 14 days, mild COVID-19 outpatients) | safety and tolerability ([5]; 25 mg BID 14 days, during 2 weeks of dosing and at week 10 follow up, compared to placebo) | resolution of symptoms most commonly associated with mild COVID-19 (cough, headache, fatigue) ([5]; patients who completed treatment, at day 7, continued through Day 45) | inhibition of main protease activity [6] | inhibition of ACE-2 receptor binding activity for SARS-COV-2 [7] | safety and tolerance profile [8] |
| --- | --- | --- | --- | --- | --- | --- | --- | --- | --- | --- | --- | --- |
| CCO[C@@H]1OC(=O)C[C@@H]1NC(=O)[C@@H]1CCCN1C(=O)[C@@H](NC(=O)c1ccc(N)c(Cl)c1)C(C)(C)C [VX765, Belnacasan] | did not show a strong similar suppressive effect |  |  |  |  |  |  |  |  |  |  |  |
| C[C@H](NC(=O)C(=O)Nc1ccccc1C(C)(C)C)C(=O)N[C@@H](CC(=O)O)C(=O)COc1c(F)c(F)cc(F)c1F [Emricasan, (3S)-3-{[(2S)-2-{[2-(2-tert-butylanilino)-2-oxoacetyl]amino}propanoyl]amino}-4-oxo-5-(2,3,5,6-tetrafluorophenoxy) pentanoic acid] | suppressed | decrease | ⅓ | prevented its upregulation | suppressed | did not change | no reports of serious adverse events | safe and well tolerated | complete resolution | may also inhibit | inhibit the binding activity | excellent safety and tolerance profile |
